Assay [1] concerns the target Thymidine kinase (Herpes simplex virus 1). Nature of the assay: Compound was evaluated for Kinetic constant for viral thymidine kinase of Herpes simplex virus (HSV) -1.
The target in assay [2] is Thymidine kinase (Herpes simplex virus 2). Kind of assay: Compound was evaluated for Kinetic constant for viral thymidine kinase of Herpes simplex virus (HSV) -2.

On to `O=c1[nH]c(=O)n([C@@H]2O[C@H](CO)[C@@H](O)[C@@H]2F)cc1I` [FIALURIDINE], for which the Ki in assay [1] stood at 0.14 µM; in assay [2], 0.95 µM.

The Ki is a dissociation constant, usually derived from enzyme kinetics or from competition with a known ligand.

(Values after BindingDB's records for doi:10.1021/jm00388a021 (1987).)
